≈ marks a conversion by molar mass, not a printed value.
Assays:
Collagenase 3 = Collagenase 3 (Homo sapiens, UniProt P45452); test: Inhibition of recombinant human MMP13 using Mca-Pro-cyclohexyl-Ala-Gly-Nva-His-Ala- Dap(Dnp)-NH2 as substrate by fluorometric analysis; conditions: read-out: pIC50 (converted)
[1] = target: Matrix metalloproteinase-14 (Homo sapiens, UniProt P50281); test: Inhibition of MMP14 using Mca-Pro-cyclohexyl-Ala-Gly-Nva-His-Ala- Dap(Dnp)-NH2 as substrate by fluorometric analysis
[2] = target: Macrophage metalloelastase (Homo sapiens, UniProt P39900); test: Inhibition of MMP12 using Mca-Pro-cyclohexyl-Ala-Gly-Nva-His-Ala- Dap(Dnp)-NH2 as substrate by fluorometric analysis
Chain of Macrophage metalloelastase (P39900 whole entry): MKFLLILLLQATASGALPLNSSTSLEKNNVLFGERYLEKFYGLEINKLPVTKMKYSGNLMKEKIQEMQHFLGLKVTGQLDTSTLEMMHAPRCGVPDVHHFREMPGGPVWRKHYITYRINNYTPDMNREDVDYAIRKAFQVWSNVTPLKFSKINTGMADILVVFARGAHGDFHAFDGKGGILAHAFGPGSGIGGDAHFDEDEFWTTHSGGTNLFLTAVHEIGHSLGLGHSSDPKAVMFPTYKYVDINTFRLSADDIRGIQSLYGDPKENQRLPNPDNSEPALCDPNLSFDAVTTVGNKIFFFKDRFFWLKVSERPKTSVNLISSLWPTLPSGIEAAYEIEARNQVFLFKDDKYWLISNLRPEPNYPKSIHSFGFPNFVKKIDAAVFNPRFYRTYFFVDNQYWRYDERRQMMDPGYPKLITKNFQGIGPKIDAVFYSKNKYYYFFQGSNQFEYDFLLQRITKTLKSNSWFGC

[3] = target: 72 kDa type IV collagenase (Homo sapiens, UniProt P08253); test: Inhibition of MMP2 using Mca-Pro-cyclohexyl-Ala-Gly-Nva-His-Ala- Dap(Dnp)-NH2 as substrate by fluorometric analysis; conditions: read-out: pIC50 (converted)
Chain of 72 kDa type IV collagenase (P08253 whole entry): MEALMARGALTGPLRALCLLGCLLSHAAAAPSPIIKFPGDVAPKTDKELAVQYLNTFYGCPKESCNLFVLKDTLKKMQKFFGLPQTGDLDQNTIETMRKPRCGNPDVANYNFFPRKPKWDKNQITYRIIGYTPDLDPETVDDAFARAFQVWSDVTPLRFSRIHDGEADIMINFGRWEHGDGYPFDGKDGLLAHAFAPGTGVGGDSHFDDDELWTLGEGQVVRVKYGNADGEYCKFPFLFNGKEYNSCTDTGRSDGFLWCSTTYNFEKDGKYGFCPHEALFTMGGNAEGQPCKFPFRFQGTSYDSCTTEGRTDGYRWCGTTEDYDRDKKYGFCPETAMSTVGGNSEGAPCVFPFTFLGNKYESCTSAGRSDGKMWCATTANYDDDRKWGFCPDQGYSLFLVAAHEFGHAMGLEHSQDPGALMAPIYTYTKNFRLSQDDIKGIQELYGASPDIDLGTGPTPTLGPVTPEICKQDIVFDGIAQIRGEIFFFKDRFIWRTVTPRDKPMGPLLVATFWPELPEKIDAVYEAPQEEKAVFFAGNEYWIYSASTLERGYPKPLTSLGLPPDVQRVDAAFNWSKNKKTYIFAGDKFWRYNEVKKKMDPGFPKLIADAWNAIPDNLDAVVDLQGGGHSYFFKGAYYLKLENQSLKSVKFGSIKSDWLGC

[4] = target: Matrix metalloproteinase-9 (Homo sapiens, UniProt P14780); test: Inhibition of MMP9 using Mca-Pro-cyclohexyl-Ala-Gly-Nva-His-Ala- Dap(Dnp)-NH2 as substrate by fluorometric analysis
Chain of Matrix metalloproteinase-9 (P14780 whole entry): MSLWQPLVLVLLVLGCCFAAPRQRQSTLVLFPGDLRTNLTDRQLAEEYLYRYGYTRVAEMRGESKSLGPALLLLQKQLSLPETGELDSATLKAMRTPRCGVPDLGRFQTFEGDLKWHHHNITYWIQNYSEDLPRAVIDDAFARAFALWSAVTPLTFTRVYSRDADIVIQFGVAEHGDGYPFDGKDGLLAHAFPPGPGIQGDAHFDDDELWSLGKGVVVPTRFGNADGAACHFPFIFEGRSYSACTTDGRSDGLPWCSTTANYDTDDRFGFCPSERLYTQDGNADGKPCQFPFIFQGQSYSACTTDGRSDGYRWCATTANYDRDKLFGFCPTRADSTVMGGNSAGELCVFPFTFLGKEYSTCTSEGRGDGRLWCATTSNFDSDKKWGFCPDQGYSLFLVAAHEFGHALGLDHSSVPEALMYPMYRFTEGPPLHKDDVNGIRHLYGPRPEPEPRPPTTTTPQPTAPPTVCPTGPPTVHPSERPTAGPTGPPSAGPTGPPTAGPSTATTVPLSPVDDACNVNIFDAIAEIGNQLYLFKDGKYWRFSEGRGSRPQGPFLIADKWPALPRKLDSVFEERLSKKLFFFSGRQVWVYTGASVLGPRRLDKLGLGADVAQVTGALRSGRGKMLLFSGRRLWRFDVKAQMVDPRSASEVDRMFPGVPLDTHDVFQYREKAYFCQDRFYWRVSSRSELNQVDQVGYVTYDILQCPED

Rattus norvegicus = test: (§1) Oral bioavailability in rat; assay type: ADME, organism-based; conditions: in vivo
[5] = Thermodynamic solubility of the compound; conditions: Therm_solubility
[6] = Intrinsic clearance in human microsomes; assay type: ADME, Microsome
[7] = Intrinsic clearance in Sprague-Dawley rat hepatocytes assessed per 10^6 cells; assay type: ADME, cell-based, Hepatocyte; conditions: Sprague-Dawley, read-out: CLH
[8] = target: T1, A disintegrin and metalloproteinase with thrombospondin motifs 4 (Homo sapiens) (UniProt O75173); test: Inhibition of ADAM-TS4 using dimethoxyfluorescein-Ser-Pro-Leu-Ala-Gln-Ala- Val-Arg-ser-Ser-Arg-Cys-fluorescein as substrate
T1 sequence (whole entry): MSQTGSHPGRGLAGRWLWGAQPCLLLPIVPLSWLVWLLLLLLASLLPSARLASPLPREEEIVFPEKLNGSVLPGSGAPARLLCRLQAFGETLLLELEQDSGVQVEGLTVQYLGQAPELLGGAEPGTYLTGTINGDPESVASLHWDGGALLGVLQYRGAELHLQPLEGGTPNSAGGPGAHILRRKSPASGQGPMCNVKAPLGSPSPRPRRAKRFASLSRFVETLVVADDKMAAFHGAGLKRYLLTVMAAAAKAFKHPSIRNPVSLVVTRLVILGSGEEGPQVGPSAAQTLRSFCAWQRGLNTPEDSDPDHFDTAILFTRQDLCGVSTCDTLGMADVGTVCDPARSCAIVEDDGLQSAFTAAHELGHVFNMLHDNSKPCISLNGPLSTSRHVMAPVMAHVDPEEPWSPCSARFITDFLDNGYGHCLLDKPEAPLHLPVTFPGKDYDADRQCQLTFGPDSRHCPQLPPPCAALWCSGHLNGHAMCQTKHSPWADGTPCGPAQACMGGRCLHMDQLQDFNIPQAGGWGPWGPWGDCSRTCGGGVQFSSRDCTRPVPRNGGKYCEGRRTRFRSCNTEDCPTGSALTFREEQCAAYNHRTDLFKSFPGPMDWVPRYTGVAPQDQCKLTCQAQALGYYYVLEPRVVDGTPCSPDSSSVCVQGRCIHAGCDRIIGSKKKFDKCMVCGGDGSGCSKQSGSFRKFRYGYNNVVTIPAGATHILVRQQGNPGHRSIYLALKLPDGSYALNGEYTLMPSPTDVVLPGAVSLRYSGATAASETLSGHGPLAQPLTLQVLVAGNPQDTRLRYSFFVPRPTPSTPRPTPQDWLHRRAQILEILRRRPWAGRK

[9] = target: T2, A disintegrin and metalloproteinase with thrombospondin motifs 5 (Homo sapiens) (UniProt Q9UNA0); test: Inhibition of ADAM-TS5 using dimethoxyfluorescein-Ser-Pro-Leu-Ala-Gln-Ala- Val-Arg-ser-Ser-Arg-Cys-fluorescein as substrate
T2 sequence (whole entry): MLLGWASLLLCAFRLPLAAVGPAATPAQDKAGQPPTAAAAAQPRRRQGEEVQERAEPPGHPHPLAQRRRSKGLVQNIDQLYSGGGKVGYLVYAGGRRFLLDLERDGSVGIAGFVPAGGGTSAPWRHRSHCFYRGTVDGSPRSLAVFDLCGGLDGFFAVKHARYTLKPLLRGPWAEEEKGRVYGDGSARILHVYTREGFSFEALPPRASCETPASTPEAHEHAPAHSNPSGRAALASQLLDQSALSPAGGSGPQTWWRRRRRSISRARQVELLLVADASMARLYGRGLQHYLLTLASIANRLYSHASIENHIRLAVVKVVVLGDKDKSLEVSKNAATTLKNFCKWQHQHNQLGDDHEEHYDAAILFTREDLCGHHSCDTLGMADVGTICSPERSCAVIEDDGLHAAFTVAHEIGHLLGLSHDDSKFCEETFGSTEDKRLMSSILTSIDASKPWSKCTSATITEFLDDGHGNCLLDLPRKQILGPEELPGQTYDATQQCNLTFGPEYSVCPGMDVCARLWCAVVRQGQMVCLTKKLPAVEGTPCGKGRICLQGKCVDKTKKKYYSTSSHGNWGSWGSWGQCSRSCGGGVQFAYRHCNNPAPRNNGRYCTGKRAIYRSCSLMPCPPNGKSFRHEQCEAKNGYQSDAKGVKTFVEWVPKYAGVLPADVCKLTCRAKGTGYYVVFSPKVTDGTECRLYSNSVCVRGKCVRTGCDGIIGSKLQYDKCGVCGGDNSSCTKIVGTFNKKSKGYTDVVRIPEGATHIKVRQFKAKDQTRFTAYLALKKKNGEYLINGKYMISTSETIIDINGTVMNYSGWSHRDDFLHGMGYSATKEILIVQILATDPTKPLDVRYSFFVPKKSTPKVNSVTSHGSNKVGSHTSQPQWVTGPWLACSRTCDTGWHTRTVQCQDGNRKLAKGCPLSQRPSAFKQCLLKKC

[10] = target: T3, A disintegrin and metalloproteinase with thrombospondin motifs 1 (Homo sapiens) (UniProt Q9UHI8); test: Inhibition of ADAM-TS1 dimethoxyfluorescein-Ser-Pro-Leu-Ala-Gln-Ala- Val-Arg-ser-Ser-Arg-Cys-fluorescein
T3 sequence (whole entry): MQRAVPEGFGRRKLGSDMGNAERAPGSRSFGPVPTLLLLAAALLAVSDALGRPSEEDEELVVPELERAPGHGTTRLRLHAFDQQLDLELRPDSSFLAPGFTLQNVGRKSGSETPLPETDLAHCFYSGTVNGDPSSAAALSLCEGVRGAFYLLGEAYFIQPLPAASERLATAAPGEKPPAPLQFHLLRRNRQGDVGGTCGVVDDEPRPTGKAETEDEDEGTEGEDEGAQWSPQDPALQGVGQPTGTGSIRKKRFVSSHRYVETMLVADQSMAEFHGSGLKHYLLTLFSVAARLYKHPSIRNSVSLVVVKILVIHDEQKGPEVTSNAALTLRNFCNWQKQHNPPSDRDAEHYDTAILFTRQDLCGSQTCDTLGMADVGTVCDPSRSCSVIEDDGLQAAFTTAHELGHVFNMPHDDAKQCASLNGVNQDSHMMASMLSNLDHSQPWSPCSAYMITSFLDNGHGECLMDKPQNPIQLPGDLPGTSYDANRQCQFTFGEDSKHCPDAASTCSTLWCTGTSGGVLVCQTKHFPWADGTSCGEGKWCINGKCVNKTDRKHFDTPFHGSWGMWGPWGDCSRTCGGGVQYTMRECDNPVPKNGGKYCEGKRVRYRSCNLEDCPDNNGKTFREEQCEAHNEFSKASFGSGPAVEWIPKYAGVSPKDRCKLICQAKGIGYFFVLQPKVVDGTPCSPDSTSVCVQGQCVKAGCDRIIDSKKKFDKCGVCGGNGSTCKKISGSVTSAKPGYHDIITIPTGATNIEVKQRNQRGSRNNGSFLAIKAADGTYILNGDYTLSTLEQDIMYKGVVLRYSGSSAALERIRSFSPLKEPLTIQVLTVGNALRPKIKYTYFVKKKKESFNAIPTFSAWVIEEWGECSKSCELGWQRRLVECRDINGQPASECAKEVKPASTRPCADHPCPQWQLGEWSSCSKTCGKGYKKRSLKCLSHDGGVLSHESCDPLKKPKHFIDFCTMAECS

Cytochrome P450 2D6 = Cytochrome P450 2D6 (Homo sapiens, UniProt P10635); test: Inhibition of CYP2D6; assay type: ADME; conditions: read-out: pIC50 (converted)
Chain of Cytochrome P450 2D6 (P10635 whole entry): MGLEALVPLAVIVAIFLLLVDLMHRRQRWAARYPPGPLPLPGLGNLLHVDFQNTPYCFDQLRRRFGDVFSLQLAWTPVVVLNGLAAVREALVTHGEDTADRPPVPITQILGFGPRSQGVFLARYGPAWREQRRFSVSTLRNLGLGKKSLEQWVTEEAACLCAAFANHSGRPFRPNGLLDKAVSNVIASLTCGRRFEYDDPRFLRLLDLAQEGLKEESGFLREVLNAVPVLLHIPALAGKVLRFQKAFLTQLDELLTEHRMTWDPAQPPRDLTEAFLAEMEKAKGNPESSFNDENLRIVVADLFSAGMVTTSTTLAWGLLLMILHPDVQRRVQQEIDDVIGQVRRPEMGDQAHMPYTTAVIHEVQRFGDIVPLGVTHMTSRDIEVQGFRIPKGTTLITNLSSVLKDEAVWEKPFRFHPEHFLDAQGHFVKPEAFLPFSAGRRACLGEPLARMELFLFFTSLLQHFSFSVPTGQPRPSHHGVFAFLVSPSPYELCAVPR

[11] = Fraction unbound in human; assay type: ADME, organism-based; conditions: in vivo
[12] = Lipophilicity, log D of the compound; conditions: octanol/water
[13] = Volume of distribution at steady state in rat at 2 mg/kg, iv; assay type: ADME, organism-based; parameters: dose 2 mg/kg, route intravenous; conditions: in vivo, read-out: Vdss
[14] = as §1; assay type: ADME, organism-based; conditions: in vivo
Cytochrome P450 3A4 = Cytochrome P450 3A4 (Homo sapiens, UniProt P08684); test: Inhibition of CYP3A4; assay type: ADME; conditions: read-out: pIC50 (converted)
Chain of Cytochrome P450 3A4 (P08684 whole entry): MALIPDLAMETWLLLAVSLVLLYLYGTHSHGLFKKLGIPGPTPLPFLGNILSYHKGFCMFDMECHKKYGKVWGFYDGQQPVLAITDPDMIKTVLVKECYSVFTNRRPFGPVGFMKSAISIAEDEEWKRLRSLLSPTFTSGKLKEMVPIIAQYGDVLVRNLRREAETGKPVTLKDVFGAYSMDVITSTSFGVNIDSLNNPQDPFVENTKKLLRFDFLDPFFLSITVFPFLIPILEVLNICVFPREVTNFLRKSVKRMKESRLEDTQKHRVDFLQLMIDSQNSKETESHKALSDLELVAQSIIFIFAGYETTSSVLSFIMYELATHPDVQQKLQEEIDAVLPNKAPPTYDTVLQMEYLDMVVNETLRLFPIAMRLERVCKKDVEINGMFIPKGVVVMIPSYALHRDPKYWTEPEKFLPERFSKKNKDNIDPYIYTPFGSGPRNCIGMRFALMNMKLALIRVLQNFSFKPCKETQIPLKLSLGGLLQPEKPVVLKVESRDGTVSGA

Cytochrome P450 1A2 = target: T4, Cytochrome P450 1A2 (Homo sapiens, UniProt P05177); test: Inhibition of CYP1A2; assay type: ADME
T4 sequence (P05177 whole entry): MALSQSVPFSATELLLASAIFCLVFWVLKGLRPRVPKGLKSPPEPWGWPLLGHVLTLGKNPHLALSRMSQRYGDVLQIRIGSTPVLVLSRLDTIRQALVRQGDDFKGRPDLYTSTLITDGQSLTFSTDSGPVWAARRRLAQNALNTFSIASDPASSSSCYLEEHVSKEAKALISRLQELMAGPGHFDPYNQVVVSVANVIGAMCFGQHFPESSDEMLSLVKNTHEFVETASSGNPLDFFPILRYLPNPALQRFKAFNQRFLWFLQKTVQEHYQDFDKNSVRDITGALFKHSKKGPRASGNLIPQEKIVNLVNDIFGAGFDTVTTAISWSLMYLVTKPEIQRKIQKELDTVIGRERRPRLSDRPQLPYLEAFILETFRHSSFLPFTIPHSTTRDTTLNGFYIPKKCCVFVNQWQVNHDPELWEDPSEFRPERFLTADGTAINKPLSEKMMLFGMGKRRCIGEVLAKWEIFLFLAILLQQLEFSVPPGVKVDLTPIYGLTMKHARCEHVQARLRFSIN

[15] = Apparent permeability across apical to basolateral side in human Caco2 cells at 10 uM; assay type: ADME, cell-based; conditions: Caco-2
Cytochrome P450 2C19 = Cytochrome P450 2C19 (Homo sapiens, UniProt P33261); test: Inhibition of CYP2C19; assay type: ADME; conditions: read-out: pIC50 (converted)
Chain of Cytochrome P450 2C19 (P33261 whole entry): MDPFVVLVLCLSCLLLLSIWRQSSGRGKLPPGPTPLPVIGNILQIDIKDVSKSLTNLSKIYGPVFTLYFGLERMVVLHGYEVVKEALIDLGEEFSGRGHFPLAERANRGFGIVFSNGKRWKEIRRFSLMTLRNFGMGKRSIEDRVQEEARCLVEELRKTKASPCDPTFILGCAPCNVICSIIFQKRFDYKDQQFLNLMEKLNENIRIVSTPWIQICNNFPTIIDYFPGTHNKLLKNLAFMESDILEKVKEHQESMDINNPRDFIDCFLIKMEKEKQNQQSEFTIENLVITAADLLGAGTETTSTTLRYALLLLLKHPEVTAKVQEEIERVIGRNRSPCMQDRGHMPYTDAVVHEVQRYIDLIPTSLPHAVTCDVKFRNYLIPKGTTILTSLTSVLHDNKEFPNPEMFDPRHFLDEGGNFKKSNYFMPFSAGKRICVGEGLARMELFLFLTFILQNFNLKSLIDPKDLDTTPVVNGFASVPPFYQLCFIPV

[16] = Clearance in rat at 2 mg/kg, iv; assay type: ADME, organism-based; parameters: dose 2 mg/kg, route intravenous; conditions: in vivo
[17] = Apparent permeability across basolateral to apical side in human Caco2 cells at 10 uM; assay type: ADME, cell-based; conditions: Caco-2
[18] = Fraction unbound in rat; assay type: ADME, organism-based; conditions: in vivo
[19] = Half life in rat at 2 mg/kg, iv; assay type: ADME, organism-based; parameters: dose 2 mg/kg, route intravenous; conditions: in vivo
Cytochrome P450 2C9 = Cytochrome P450 2C9 (Homo sapiens, UniProt P11712); test: Inhibition of CYP2C9; assay type: ADME; conditions: read-out: pIC50 (converted)
Chain of Cytochrome P450 2C9 (P11712 whole entry): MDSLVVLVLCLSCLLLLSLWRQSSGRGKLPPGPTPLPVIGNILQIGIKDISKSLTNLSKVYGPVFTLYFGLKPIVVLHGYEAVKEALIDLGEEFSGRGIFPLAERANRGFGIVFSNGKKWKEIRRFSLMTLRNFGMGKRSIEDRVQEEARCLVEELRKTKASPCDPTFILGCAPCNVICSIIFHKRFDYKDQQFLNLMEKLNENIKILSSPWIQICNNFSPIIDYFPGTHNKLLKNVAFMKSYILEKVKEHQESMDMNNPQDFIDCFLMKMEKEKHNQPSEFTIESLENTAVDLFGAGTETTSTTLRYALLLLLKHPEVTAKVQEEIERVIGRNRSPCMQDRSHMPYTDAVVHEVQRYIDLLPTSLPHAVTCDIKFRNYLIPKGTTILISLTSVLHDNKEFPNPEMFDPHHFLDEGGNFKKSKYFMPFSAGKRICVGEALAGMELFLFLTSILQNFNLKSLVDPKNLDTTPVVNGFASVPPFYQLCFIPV

[20] = Oral bioavailability in rat at 2 to 50 mg/kg; assay type: ADME, organism-based; conditions: in vivo

O=C(NC1CCCS(=O)(=O)C1)c1ccc(Oc2ccc(C#C[C@]3(O)CN4CCC3CC4)cc2)cc1 (single isomer, unassigned; diastereomer 2)
IC50 (Collagenase 3): 0.01 µM | pIC50 [1]: < 5 | pIC50 [2]: < 5 | IC50 [3]: 2.51 µM | pIC50 [4]: < 5 | F (Rattus norvegicus): 0% | solubility thermodynamic [5]: 120 µM (≈ 59.4 µg/mL) | microsomal CLint [6]: < 2 µL/min/mg | hepatocyte CLint [7]: 3.4 µL/min/1e6 cells

O=C(NC1CCCS(=O)(=O)C1)c1ccc(Oc2ccc(C#C[C@]3(O)CN4CCC3CC4)cc2)cc1 (single isomer, unassigned; diastereomer 1)
INH [8]: > 10 µM | INH [9]: > 10 µM | INH [10]: > 100 µM

CNC(=O)c1ccc(Oc2ccc(C#C[C@]3(O)CN4CCC3CC4)cc2)cc1
IC50 (Cytochrome P450 2D6): > 10 µM | IC50 (Collagenase 3): 0.2 µM | IC50 ([1]; read-out: pIC50 (converted)): > 100 µM | IC50 ([2]; read-out: pIC50 (converted)): > 100 µM | fraction unbound [11]: 0.24 | logD [12]: 2 | Vd [13]: 2.4 L/kg | IC50 [3]: 20 µM | IC50 ([4]; read-out: pIC50 (converted)): > 100 µM | bioavailability [14]: 54% | solubility thermodynamic [5]: > 1600 µM | IC50 (Cytochrome P450 3A4): > 10 µM | IC50 (Cytochrome P450 1A2): > 10 µM | Papp A→B at 10 µM [15]: 23 ×10⁻⁶ cm/s | IC50 (Cytochrome P450 2C19): > 10 µM | clearance [16]: 16 mL/min/kg | microsomal CLint [6]: 3.9 µL/min/mg | Papp B→A at 10 µM [17]: 34 ×10⁻⁶ cm/s | hepatocyte CLint [7]: 2.7 µL/min/1e6 cells | fraction unbound [18]: 0.26 | half-life [19]: 1.9 h | IC50 (Cytochrome P450 2C9): > 10 µM

O=C(NCc1ccncn1)c1ccc(Oc2ccc(C#C[C@]3(O)CN4CCC3CC4)cc2)cc1
logD [12]: 1.8 | Papp A→B at 10 µM [15]: 6.7 ×10⁻⁶ cm/s | Papp B→A at 10 µM [17]: 33 ×10⁻⁶ cm/s | hepatocyte CLint [7]: 3.2 µL/min/1e6 cells | bioavailability [20]: 2%

From ChEMBL document CHEMBL1938343, “Lead optimisation of selective non-zinc binding inhibitors of MMP13. Part 2” (Bioorg Med Chem Lett, 2012)
